According to doi:10.1101/2023.08.31.555680v1 (biorxiv, 2023):

What was measured:
[1] = target: TsiA-FAST; settings: PBS pH […] presumably; details in supplement
[2] = target: RspA-FAST; settings: PBS pH […] presumably; details in supplement
[3] = target: RspA-splitFAST (assembled NC complex; FRB-RspA(N) + FKBP-RspA(C)); settings: read-out: Kd,F/C; […] each FRB-N and FKBP-C preassembled with […] rapamycin

COc1cc(/C=C2\SC(=S)NC2=O)cc(OC)c1O [HBR-3,5DOM]
Kd [1]: 0.06 µM
Kd [2]: 0.074 µM

Cc1cc(/C=C2\SC(=S)NC2=O)ccc1O [HMBR]
Kd [3]: 0.15 ± 0.01 µM
